# Measurements published in patent publication US11542295B2, “Use of 20-hydroxyecdysone and the derivatives thereof in the treatment of myopathies” (BIOPHYTIS, priority 2017, dated 2023).
# What was measured:
# [1] = test system: tibialis anterior muscle of C57BL10 mdx mice; test: Maximum absolute isometric strength of the tibialis anterior muscle (in situ); type: in vivo, mouse; conditions: 50 mg/kg*day, two months of treatment
# Experimental: Twelve-week-old […] gene pool (wild mice referred to as “C57” in the figures) and […] mdx (mouse model of Duchenne muscular dystrophy, referred to as “mdx” in the figures) male mice, produced at Charles Rivers, were used. Two groups of mdx were chronically exposed per os either to BIO101 (number of mice n=9) or to BIO103 (number of mice n=9) at a dose of 50 mg/kg*day. A group of C57 mice (number of mice n=5) and a group of mdx mice (number of mice n=15) received the vehicle, i.e. no treatment. The animals of all of the groups were tested for their functional capacity (exertion tolerance test) after two months of treatment. The exertion tolerance test consists of measuring the maximum distance travelled (in-toto activity; FIGS. 1A and 1B). Furthermore, measurements of the maximum absolute isometric strength of the tibialis anterior muscle (in-situ activity; FIGS. 2A and 2B) were made after two months of treatment. The two-month oral treatment consists of force-feeding for five days a week and in drinking water two days a week. An assessment of in-situ contractility of the tibialis anterior muscle is carried out at the end of the protocol, i.e. after two months of treatment. […] The strength is measured during contractions in response to electrical stimulation (frequency of 75-150 Hz, duration of 500 ms). […] The maximum absolute isometric tetanic strength is measured.
# [2] = test system: C57BL10 mdx mice (mouse model of Duchenne muscular dystrophy); test: Exertion tolerance test (forced motorised treadmill, maximum distance travelled); type: in vivo; conditions: 50 mg/kg*day per os, two months of treatment
# Experimental: Twelve-week-old […] gene pool (wild mice referred to as “C57” in the figures) and […] mdx (mouse model of Duchenne muscular dystrophy, referred to as “mdx” in the figures) male mice, produced at Charles Rivers, were used. Two groups of mdx were chronically exposed per os either to BIO101 (number of mice n=9) or to BIO103 (number of mice n=9) at a dose of 50 mg/kg*day. A group of C57 mice (number of mice n=5) and a group of mdx mice (number of mice n=15) received the vehicle, i.e. no treatment. The animals of all of the groups were tested for their functional capacity (exertion tolerance test) after two months of treatment. The exertion tolerance test consists of measuring the maximum distance travelled (in-toto activity; FIGS. 1A and 1B). Furthermore, measurements of the maximum absolute isometric strength of the tibialis anterior muscle (in-situ activity; FIGS. 2A and 2B) were made after two months of treatment. The two-month oral treatment consists of force-feeding for five days a week and in drinking water two days a week. The exertion tolerance test is a forced motored treadmill exercise. It is a non-invasive method for assessing in-toto skeletal function. It is gold standard method in the field (Ferry et al. 1992, 1993; Hadj-Said et al. 2012). The acclimatisation period of the animals is at least 48 hours prior to the session during which the maximum running distance is measured. During the test, the mouse is placed in a running corridor on a motorised treadmill which enables a exercise controlled by the tester in the intensity and duration thereof. The treadmill ends with a horizontal grid which administers an electric shock (0.4 mA) if the animal is in contact for more than one second with the grid. The running session starts with a 2-minute warm-up period during which the speed is increased from 0 to 20 cm/s. Subsequently, the running speed is increased by 5 cm/s every 10 minutes up to the limit of the peak capacities of the mouse. When it is subjected to 5 shocks in less than 10 seconds, the test is stopped. The distance travelled is noted.
# [3] = test system: myh7 (beta myosin heavy chain); test: Heart mRNA expression of hypertrophy marker myh7 (semi-quantitative PCR); type: in vivo, mouse; conditions: mdx mice, 50 mg/kg*day, two months; p<0.01
# Experimental: Twelve-week-old […] gene pool (wild mice referred to as “C57” in the figures) and […] mdx (mouse model of Duchenne muscular dystrophy, referred to as “mdx” in the figures) male mice, produced at Charles Rivers, were used. Two groups of mdx were chronically exposed per os either to BIO101 (number of mice n=9) or to BIO103 (number of mice n=9) at a dose of 50 mg/kg*day. A group of C57 mice (number of mice n=5) and a group of mdx mice (number of mice n=15) received the vehicle, i.e. no treatment. The animals of all of the groups were tested for their functional capacity (exertion tolerance test) after two months of treatment. The exertion tolerance test consists of measuring the maximum distance travelled (in-toto activity; FIGS. 1A and 1B). […] The extract RNA is quantified by spectrophotometry then the quality thereof is verified and validated with the Experion RNA StdSens Analysis Kit (Bio-Rad). […] Finally, semi-quantitative PCR analysis was carried out using SYBR® Green (Roche), a DNA intercalating agent and a LightCycler® 480 Real Time PCR (Roche) apparatus on 384-well plates. The molecular markers measured are as follows: • CTGF and collagen I: connective tissue growth factor (CTGF) is associated with healing and with many pathological fibrotic processes including DMD (Brigstock 2010; Song Y. 2017). […]
SMILES,increase in the maximum absolute isometric strength of the tibialis anterior muscle compared to mdx animals receiving the vehicle [1],improvement of overall physical performances (in-toto activity) [2] [fold],improvement of the distance travelled compared to untreated mdx animals (vehicle) [2],expression of myh7 in heart compared to mdx animals receiving the vehicle [3]
"CC(C)(O)CC[C@@H](O)[C@](C)(O)[C@H]1CC[C@@]2(O)C3=CC(=O)[C@@H]4C[C@@H](O)[C@@H](O)C[C@]4(C)[C@H]3CC[C@]12C [BIO101, 20-hydroxyecdysone]",+15.3%,2.4,+136%,significantly reduces
"CCSCC(=O)[C@H]1CC[C@@]2(O)C3=CC(=O)[C@@H]4C[C@@H](O)[C@@H](O)C[C@]4(C)C3CC[C@]12C (stereo partly drawn) [BIO103, (2S,3R,5R,10R,13R,14S,17S)-17-(2-ethylsulfanylacetyl)-2,3,14-trihydroxy-10,13-dimethyl-2,3,4,5,9,11,12,15,16,17-decahydro-1H-cyclopenta[a]phenanthren-6-one]",+22.5%,1.7,+67%,significantly reduces
